Experiments:
Assay in all cases: relative viability (nuclei count vs DMSO), 5 days (fraction); higher = more cells survive
[1] = compound: CO[C@@H]1[C@H](N(C)C(=O)c2ccccc2)C[C@H]2O[C@]1(C)n1c3ccccc3c3c4c(c5c6ccccc6n2c5c31)C(=O)NC4 [Midostaurin] + Cc1nc(NC(=O)N2CCC[C@H]2C(N)=O)sc1-c1ccnc(C(C)(C)C(F)(F)F)c1 [Alpelisib] (partner 2 µM)
Method in brief: (§1)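 Relative viability was taken as the ratio of nuclei in treated wells to nuclei in vehicle wells. Lung cancer cell lines in 1536-well plates received compounds by pin tool one day after seeding, either one drug alone or a fixed anchor-drug dose plus five library-drug doses (not always all listed) in √10 steps. Nuclei were counted on 4× images after 5 days of treatment, and values are medians of duplicate plates.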

[2] = compound: CO[C@@H]1[C@H](N(C)C(=O)c2ccccc2)C[C@H]2O[C@]1(C)n1c3ccccc3c3c4c(c5c6ccccc6n2c5c31)C(=O)NC4 [Midostaurin] + N=C(N)NC(=N)NCCc1ccccc1 [Phenformin] (partner 250 µM)
Method in brief: as §1

[3] = compound: COc1cc(-c2nn([C@H]3CC[C@H](N4CCN(C(C)=O)CC4)CC3)c3ncnc(N)c23)ccc1NC(=O)c1cc2ccccc2n1C + Cc1nc(NC(=O)N2CCC[C@H]2C(N)=O)sc1-c1ccnc(C(C)(C)C(F)(F)F)c1 [Alpelisib] (partner 2 µM)
Method in brief: as §1

[4] = compound: CO[C@@H]1[C@H](N(C)C(=O)c2ccccc2)C[C@H]2O[C@]1(C)n1c3ccccc3c3c4c(c5c6ccccc6n2c5c31)C(=O)NC4 [Midostaurin] + Nc1ncn([C@H]2C[C@H](O)[C@@H](CO)O2)c(=O)n1 [Decitabine] (partner 2 µM)
Method in brief: as §1

[5] = compound: COc1cc(-c2nn([C@H]3CC[C@H](N4CCN(C(C)=O)CC4)CC3)c3ncnc(N)c23)ccc1NC(=O)c1cc2ccccc2n1C + CS(=O)(=O)CCNCc1ccc(-c2ccc3ncnc(Nc4ccc(OCc5cccc(F)c5)c(Cl)c4)c3c2)o1 [Lapatinib] (partner 2 µM)
Method in brief: as §1

Cell Line	relative viability ([1]; first compound 0.01 µM)	relative viability ([1]; first compound 0.03162 µM)	relative viability ([1]; first compound 0.1 µM)	relative viability ([1]; first compound 0.3162 µM)	relative viability ([2]; first compound 0.01 µM)	relative viability ([2]; first compound 0.03162 µM)	relative viability ([2]; first compound 0.1 µM)	relative viability ([2]; first compound 0.3162 µM)	relative viability ([3]; first compound 0.0128 µM)	relative viability ([3]; first compound 0.04048 µM)	relative viability ([3]; first compound 0.128 µM)	relative viability ([3]; first compound 1.28 µM)	relative viability ([4]; first compound 0.01 µM)	relative viability ([4]; first compound 0.03162 µM)	relative viability ([4]; first compound 0.1 µM)	relative viability ([4]; first compound 0.3162 µM)	relative viability ([5]; first compound 0.0128 µM)	relative viability ([5]; first compound 0.04048 µM)	relative viability ([5]; first compound 0.128 µM)	relative viability ([5]; first compound 1.28 µM)
LOU-NH91	0.776	0.673	0.724	0.756	0.755	0.701	0.764	0.798	0.77	0.74	0.759	0.564	0.783	0.781	0.835	0.798	0.756	0.689	0.747	0.679
LU99A	0.437	0.457	0.396	0.387	0.872	0.977	0.899	0.729	0.464	0.565	0.534	0.521	0.912	0.948	0.657	0.594	1.11	1.1	1.12	0.904
LXF-289	0.997	1.02	0.952	0.976	0.519	0.51	0.49	0.505	1.1	1.03	1.04	0.958	0.394	0.339	0.342	0.401	1.01	0.86	0.876	1.02
NCI-H23	0.739	0.517	0.339	0.602	0.713	0.798	0.773	0.772	0.63	0.632	0.659	0.476	0.302	0.368	0.308	0.249	1.28	1.03	1.07	1.09
NCI-H322M	0.836	0.686	0.882	0.807	0.831	0.673	0.811	0.875	0.801	0.844	0.681	0.741	0.638	0.673	0.651	0.715	0.627	0.679	0.621	0.474
NCI-H358	0.891	0.719	0.954	0.768	0.404	0.331	0.371	0.353	0.725	0.747	0.76	0.555	0.228	0.236	0.231	0.25	0.455	0.391	0.335	0.27
NCI-H460	0.47	0.433	0.371	0.365	0.492	0.507	0.561	0.534	0.386	0.59	0.57	0.378	0.491	0.526	0.53	0.638	1.05	0.994	0.964	0.741
NCI-H520	0.891	0.882	0.845	0.981	0.572	0.471	0.756	0.634	0.881	0.908	0.697	0.471	0.498	0.501	0.514	0.427	0.818	0.745	0.685	0.646
NCI-H596	0.587	0.546	0.508	0.432	0.898	0.963	0.816	0.986	0.523	0.511	0.516	0.271	1.1	1.11	1.07	1.12	0.933	1.2	0.933	0.842
NCI-H647	0.948	1.15	0.861	0.672	0.533	0.603	0.473	0.433	1.03	1.18	0.945	0.429	0.405	0.433	0.346	0.374	1.24	0.974	0.981	0.632
NCI-H650	1.04	1.07	1.11	0.63	0.403	0.413	0.437	0.322	1.49	1.34	1.12	1.05	0.339	0.311	0.321	0.334	1.14	1.36	0.843	0.837
NCI-H661	0.684	0.601	0.758	0.661	0.279	0.286	0.261	0.311	0.418	0.526	0.729	0.376	0.622	0.611	0.598	0.596	0.545	0.532	0.469	0.319
NCI-H727	0.526	0.471	0.538	0.296	0.545	0.437	0.665	0.538	0.62	–	0.454	0.405	0.88	0.911	0.925	0.932	0.804	–	0.754	0.718
NCI-H838	1.02	0.772	0.865	0.407	0.704	0.551	0.397	0.274	1.03	1.01	1.01	0.664	0.478	0.447	0.385	0.328	1.06	1.02	0.913	0.629
NCI-H1355	0.827	0.788	0.748	0.814	0.43	0.443	0.464	0.465	0.981	0.795	0.828	0.737	0.361	0.386	0.346	0.348	1.11	0.928	0.952	0.897
NCI-H1395	1.09	1.08	1.3	1.22	0.459	0.459	0.488	0.523	0.947	1.47	0.995	0.953	0.681	0.81	0.712	0.702	0.939	1.09	0.881	0.782
NCI-H1437	1.06	0.995	0.96	0.986	0.373	0.285	0.298	0.372	0.968	0.992	0.897	0.757	0.579	0.607	0.561	0.53	0.901	0.91	0.77	0.764
NCI-H1651	1.17	0.92	0.935	0.902	0.377	0.4	0.327	0.299	0.965	0.941	0.911	0.862	0.612	0.596	0.696	0.649	0.961	1.03	0.621	0.74
NCI-H1666	1.06	0.788	0.838	0.732	0.496	0.537	0.546	0.537	0.981	0.864	0.921	0.769	0.719	0.684	0.777	0.716	0.712	0.664	0.581	0.509
NCI-H1734	0.656	0.618	0.69	0.742	0.421	0.354	0.453	0.366	0.684	0.636	0.716	0.573	0.508	0.499	0.486	0.521	1.12	1.04	0.959	0.871
NCI-H1755	0.921	0.912	0.75	0.694	0.631	0.621	0.609	0.592	1.04	0.992	0.884	0.656	0.778	0.684	0.715	0.739	1.17	0.967	0.974	1.05
NCI-H1792	0.703	0.672	0.63	0.654	0.508	0.303	0.428	0.309	0.78	0.593	0.719	0.55	0.555	0.515	0.529	0.431	0.83	0.773	0.883	0.755
NCI-H1793	0.705	0.601	0.664	0.662	0.444	0.325	0.36	0.26	0.734	0.682	0.595	0.442	0.484	0.551	0.493	0.359	1.01	0.501	0.434	0.621
NCI-H1915	1.04	1.02	1.06	1.06	0.35	0.348	0.352	0.352	1.13	1.07	1.02	0.857	0.264	0.26	0.255	0.255	1.08	1.03	0.992	1.01
NCI-H1944	0.799	0.908	0.887	0.946	0.217	0.196	0.239	0.235	0.827	0.879	0.784	0.506	0.463	0.439	0.375	0.394	0.944	0.95	0.777	0.69
NCI-H1975	0.613	0.628	0.575	0.38	0.425	0.418	0.39	0.397	0.659	0.757	0.547	0.257	0.368	0.446	0.366	0.363	0.891	0.928	0.837	0.447

From the supplement of paper PMC10307832
